SMILES strings stand for the structures.

Series [1] has as its system RAW264.7. The series can be described thus: Cytotoxicity against mouse RAW264.7 cells assessed as cell viability at IC50 by MTT assay. The class given is cell-based.
In series [2] the test system is RAW264.7. As to the kind of experiment: Antiinflammatory activity in mouse RAW264.7 cells assessed as inhibition of LPS-stimulated nitric oxide production after 24 hrs by Griess method. The class given is functional, cell-based. The conditions noted are these: RAW264.7, 24 h. (In general: The Griess reaction detects nitrite, a stable product of nitric oxide.)
In series [3] the test system is RAW264.7. As to the kind of experiment: Potency index, ratio of aminoguanidine IC50 to compound IC50 for mouse RAW264.7 cells. The class given is functional.

By IC50 is commonly meant the midpoint of a concentration-inhibition curve. Regarding `C=C(C)C(CCC(C)(C)O)Cc1c2c(c(O)c3c1O[C@H](c1ccc(O)cc1)[C@H]3c1cc(O)cc(O)c1)C(=O)C[C@@H](c1ccc(O)cc1O)O2` (stereo partly specified), in the series with RAW264.7 [1], the Activity result is reported as “Non-toxic”. Further, in the series on RAW264.7 [2], the IC50 is 32.7 µM.
The corresponding values for `CC1(C)CCC(Cc2c3c(c(O)c4c2O[C@H](c2ccc(O)cc2)[C@H]4c2cc(O)cc(O)c2)C(=O)C[C@@H](c2ccc(O)cc2O)O3)C(C)(C)O1` (stereo partly specified) are “Non-toxic” and 27.8 µM.
Consider `C=C(C)C(CC=C(C)C)Cc1c2c(c(O)c3c1O[C@@H](c1ccc(O)cc1)[C@H]3c1cc(O)cc(O)c1)C(=O)C[C@@H](c1ccc(O)cc1O)O2` (stereo partly specified), for which the Activity result in the series with RAW264.7 [1] is “Non-toxic”. Also, in the series on RAW264.7 [2], the IC50 is 15.9 µM.
For `CC(C)=CCc1c2c(c(O)c3c1O[C@H](c1ccc(O)cc1)[C@H]3c1cc(O)cc(O)c1)C(=O)C[C@@H](c1ccc(O)cc1)O2`, in the series with RAW264.7 [1], the Activity entry is on record as “Non-toxic”. The half-inhibitory concentration (IC50) in the series with RAW264.7 [2] worked out at 19 µM.
For `CC(C)=CCc1c2c(c(O)c3c1O[C@H](c1ccc(O)cc1)[C@H]3c1cc(O)cc(O)c1)C(=O)C[C@@H](c1ccc(O)cc1O)O2`, the “Ratio IC50” value with RAW264.7 [3] worked out at 3. Further, the Activity result in the series on RAW264.7 [1] is given as “Non-toxic”. Moreover, the IC50 in the series with RAW264.7 [2] worked out at 7.3 µM.
Consider `CC(C)=CCC1Cc2c(cc(O)c3c2O[C@H](c2ccc(O)cc2O)CC3=O)OC1(C)C` (stereo partly specified), for which the Activity result in the series with RAW264.7 [1] is “Non-toxic”. In the series on RAW264.7 [2], the IC50 came to 10.7 µM.
Turning to `C=CC(C)(C)c1c(OC)cc(O)c2c(=O)c3c(CC=C(C)C)c(O)c(O)cc3oc12` [CUDRAXANTHONE D], the Activity entry in the series on RAW264.7 [1] was “Non-toxic”. Besides, the IC50 with RAW264.7 [2] came to 16.1 µM.
For the compound `C=C(C)C(CC=C(C)C)Cc1c(O)cc(OC)c2c1O[C@H](c1ccc(O)cc1O)CC2=O` (stereo partly specified) [KURARINONE], the Activity result in the series with RAW264.7 [1] was “Non-toxic”. Also, the half-maximal inhibitory concentration (IC50) with RAW264.7 [2] came out at 26.6 µM.
As to `Oc1ccc([C@@H]2c3c(O)cc(O)cc3[C@H]3[C@H](c4ccc(O)cc4)c4c(O)cc(O)cc4[C@@H]23)cc1` [PALLIDOL], the Activity result in the series on RAW264.7 [1] is given as “Non-toxic”. Moreover, the 50% inhibitory concentration (IC50) in the series with RAW264.7 [2] was more than 50 µM.
Turning to `N=C(N)NN` [PIMAGEDINE], the IC50 in the series with RAW264.7 [2] is 20.6 µM.
Consider `CC(C)=CCc1c(O)cc(O)c2c1OC(c1ccc(O)cc1)CC2=O` (stereo unspecified) [SOPHORAFLAVANONE B], for which the Activity result with RAW264.7 [1] is “Non-toxic”. For the same compound, the IC50 with RAW264.7 [2] turned out to be 26.3 µM.
On to `C=C(C)[C@H](CC=C(C)C)Cc1c(O)cc(O)c2c1O[C@H](c1ccc(O)cc1O)CC2=O` [SOPHORAFLAVANONE G], for which, in the series on RAW264.7 [1], the Activity entry was “Non-toxic”. Also, the IC50 in the series on RAW264.7 [2] is 10.9 µM.
On the same counts, the results for `OC[C@H]1O[C@@H](Oc2ccc3c(c2)OC[C@H]2c4cc5c(cc4O[C@@H]32)OCO5)[C@H](O)[C@@H](O)[C@@H]1O` [TRIFOLIRHIZIN] are “Non-toxic” and more than 50 µM.

(Values after ChEMBL document CHEMBL3600319, “Chemical constituents isolated from the Mongolian medicinal plant Sophora alopecuroides L. and their inhibitory effects on LPS-induced nitric oxide production in RAW 264.7 macrophages” (Bioorg Med Chem Lett, 2015).)
